# Results: ChEMBL document CHEMBL5104091, “Pyridazine as a privileged structure: An updated review on anticancer activity of pyridazine containing bioactive molecules” (Eur J Med Chem, 2021)
# Columns and labels:
# MDA-MB-231 = assay: Antiproliferative activity against human MDA-MB-231 cells assessed as cell growth inhibition measured after 48 hrs by WST-1 assay; format: functional, cell-based; details: MDA-MB-231, 48 h
# HepG2 [1] = assay: Antiproliferative activity against human HepG2 cells assessed as cell growth inhibition incubated for 24 hrs by MTT assay; format: functional, cell-based; details: HepG2, 24 h
# MCF7 [2] = assay: Antiproliferative activity against human MCF7 cells assessed as cell growth inhibition incubated for 24 hrs by MTT assay; format: functional, cell-based; details: MCF7, 24 h
# [3] = target: T1, Hepatocyte growth factor receptor (Homo sapiens, UniProt P08581); assay: Inhibition of human recombinant c-MET in presence of ATP by HTRF assay
# T1 sequence (P08581 whole entry): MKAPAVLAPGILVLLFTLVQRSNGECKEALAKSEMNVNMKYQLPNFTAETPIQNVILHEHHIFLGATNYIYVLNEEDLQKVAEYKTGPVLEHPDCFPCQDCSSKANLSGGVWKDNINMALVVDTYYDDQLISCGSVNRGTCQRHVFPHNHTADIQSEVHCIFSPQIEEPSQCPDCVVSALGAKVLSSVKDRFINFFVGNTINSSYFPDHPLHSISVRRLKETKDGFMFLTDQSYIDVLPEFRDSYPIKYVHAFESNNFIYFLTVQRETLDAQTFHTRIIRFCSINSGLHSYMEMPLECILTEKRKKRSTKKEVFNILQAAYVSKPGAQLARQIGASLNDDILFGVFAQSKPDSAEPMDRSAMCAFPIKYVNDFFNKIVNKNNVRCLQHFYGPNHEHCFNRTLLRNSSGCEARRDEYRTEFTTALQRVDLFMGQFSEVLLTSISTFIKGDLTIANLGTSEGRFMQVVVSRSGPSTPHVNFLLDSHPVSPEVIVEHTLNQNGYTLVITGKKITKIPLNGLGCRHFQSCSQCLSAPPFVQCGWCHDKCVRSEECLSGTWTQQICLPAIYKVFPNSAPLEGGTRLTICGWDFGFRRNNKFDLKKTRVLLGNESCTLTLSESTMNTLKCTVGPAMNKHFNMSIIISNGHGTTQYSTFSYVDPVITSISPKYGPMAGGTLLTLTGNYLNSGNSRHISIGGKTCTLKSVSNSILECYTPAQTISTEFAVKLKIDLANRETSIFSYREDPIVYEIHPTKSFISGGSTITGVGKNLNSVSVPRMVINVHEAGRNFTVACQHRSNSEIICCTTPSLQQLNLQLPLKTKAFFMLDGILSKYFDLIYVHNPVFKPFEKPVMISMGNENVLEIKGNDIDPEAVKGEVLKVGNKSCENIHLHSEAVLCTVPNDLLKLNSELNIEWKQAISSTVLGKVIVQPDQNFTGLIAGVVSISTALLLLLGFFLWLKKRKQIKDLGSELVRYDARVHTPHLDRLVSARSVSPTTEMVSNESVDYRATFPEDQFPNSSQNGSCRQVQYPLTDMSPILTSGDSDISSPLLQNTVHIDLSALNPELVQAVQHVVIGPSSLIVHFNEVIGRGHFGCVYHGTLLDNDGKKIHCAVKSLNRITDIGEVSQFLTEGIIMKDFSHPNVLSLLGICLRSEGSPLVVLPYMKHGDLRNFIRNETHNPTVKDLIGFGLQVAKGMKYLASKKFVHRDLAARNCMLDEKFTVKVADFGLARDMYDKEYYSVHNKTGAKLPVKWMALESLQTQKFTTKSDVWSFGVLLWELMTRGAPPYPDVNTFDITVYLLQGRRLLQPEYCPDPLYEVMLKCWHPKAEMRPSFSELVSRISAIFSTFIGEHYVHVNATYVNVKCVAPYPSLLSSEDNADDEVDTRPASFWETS
# SK-MEL = assay: Cytotoxicity against human SK-MEL cells assessed as cell growth inhibition; format: functional, cell-based
# KB = assay: Cytotoxicity against human KB cells assessed as cell growth inhibition; format: functional, cell-based
# [4] = target: Poly [ADP-ribose] polymerase 1 (Homo sapiens, UniProt P09874); assay: Displacement of [125I]KX1 from PARP1 in human OVCAR-8 cells incubated for 1 hr by wizard gamma counter analysis; format: cell-based
# Chain of Poly [ADP-ribose] polymerase 1 (P09874 whole entry): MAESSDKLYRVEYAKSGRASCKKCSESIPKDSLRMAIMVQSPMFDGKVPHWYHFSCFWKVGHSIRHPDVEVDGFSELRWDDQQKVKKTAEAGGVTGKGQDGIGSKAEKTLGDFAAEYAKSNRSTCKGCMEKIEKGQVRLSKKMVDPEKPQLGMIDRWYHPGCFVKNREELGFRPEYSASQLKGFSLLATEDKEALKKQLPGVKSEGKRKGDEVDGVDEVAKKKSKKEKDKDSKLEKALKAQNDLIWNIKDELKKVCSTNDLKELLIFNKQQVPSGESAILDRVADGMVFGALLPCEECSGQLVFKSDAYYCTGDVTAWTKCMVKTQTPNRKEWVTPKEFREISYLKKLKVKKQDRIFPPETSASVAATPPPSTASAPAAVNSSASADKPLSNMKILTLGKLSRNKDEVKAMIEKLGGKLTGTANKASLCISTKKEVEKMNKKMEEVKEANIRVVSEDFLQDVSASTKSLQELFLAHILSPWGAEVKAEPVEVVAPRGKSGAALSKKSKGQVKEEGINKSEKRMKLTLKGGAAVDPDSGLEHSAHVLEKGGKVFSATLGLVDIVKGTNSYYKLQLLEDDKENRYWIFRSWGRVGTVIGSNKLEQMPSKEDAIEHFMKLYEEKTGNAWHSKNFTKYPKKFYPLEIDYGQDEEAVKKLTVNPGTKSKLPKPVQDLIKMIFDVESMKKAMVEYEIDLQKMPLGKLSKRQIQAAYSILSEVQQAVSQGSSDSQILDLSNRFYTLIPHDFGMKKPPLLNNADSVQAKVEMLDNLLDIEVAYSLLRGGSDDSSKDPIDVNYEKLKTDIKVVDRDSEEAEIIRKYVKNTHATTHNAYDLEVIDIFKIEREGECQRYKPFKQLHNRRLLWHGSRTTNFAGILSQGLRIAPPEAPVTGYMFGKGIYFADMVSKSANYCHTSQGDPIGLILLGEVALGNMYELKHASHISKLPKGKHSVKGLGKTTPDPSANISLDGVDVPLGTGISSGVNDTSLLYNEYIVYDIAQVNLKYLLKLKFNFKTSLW
# HepG2 [5] = assay: Cytotoxicity against human HepG2 cells assessed as cell growth inhibition after 48 hrs by SRB assay; format: functional, cell-based; details: HepG2, 48 h
# [6] = Inhibition of tyrosine kinase (unknown origin); design: species or system Homo sapiens
# MCF7 [7] = assay: Antiproliferative activity against human MCF7 cells assessed as cell growth inhibition; format: functional, cell-based
# MCF-12A = assay: Antiproliferative activity against human MCF-12A cells assessed as cell growth inhibition; format: functional, cell-based
# Hs746T = assay: Antiproliferative activity against human Hs746T cells assessed as cell growth inhibition measured after 72 hrs by WST-1 assay; format: functional, cell-based
# P815 = assay: Cytotoxicity against mouse P815 cells assessed as cell growth inhibition measured after 48 hrs by MTT assay; format: functional, cell-based; details: P815, 48 h
# MCF7 [8] = assay: Cytotoxicity against human MCF7 cells assessed as cell growth inhibition measured after 48 hrs by MTT assay; format: functional, cell-based; details: MCF7, 48 h
# HepG2 [9] = assay: Cytotoxicity against human HepG2 cells assessed as cell growth inhibition by colorimetric method; format: functional, cell-based
# HCT-116 [10] = assay: Cytotoxicity against human HCT-116 cells assessed as cell growth inhibition measured after 48 hrs by SRB assay; format: functional, cell-based; details: HCT-116, 48 h
# [11] = In vivo inhibition of VEGFR2 in Swiss albino mouse implanted with mouse Ehrlich cells incubated for 24 hrs by immunohistochemical staining based analysis relative to control; format: functional
# [12] = target: Vascular endothelial growth factor receptor 3 (Homo sapiens) (UniProt P35916); assay: Inhibition of VEGFR3 (unknown origin) at 10 uM by ELISA relative to control
# Chain of Vascular endothelial growth factor receptor 3 (Homo sapiens) (P35916 whole entry): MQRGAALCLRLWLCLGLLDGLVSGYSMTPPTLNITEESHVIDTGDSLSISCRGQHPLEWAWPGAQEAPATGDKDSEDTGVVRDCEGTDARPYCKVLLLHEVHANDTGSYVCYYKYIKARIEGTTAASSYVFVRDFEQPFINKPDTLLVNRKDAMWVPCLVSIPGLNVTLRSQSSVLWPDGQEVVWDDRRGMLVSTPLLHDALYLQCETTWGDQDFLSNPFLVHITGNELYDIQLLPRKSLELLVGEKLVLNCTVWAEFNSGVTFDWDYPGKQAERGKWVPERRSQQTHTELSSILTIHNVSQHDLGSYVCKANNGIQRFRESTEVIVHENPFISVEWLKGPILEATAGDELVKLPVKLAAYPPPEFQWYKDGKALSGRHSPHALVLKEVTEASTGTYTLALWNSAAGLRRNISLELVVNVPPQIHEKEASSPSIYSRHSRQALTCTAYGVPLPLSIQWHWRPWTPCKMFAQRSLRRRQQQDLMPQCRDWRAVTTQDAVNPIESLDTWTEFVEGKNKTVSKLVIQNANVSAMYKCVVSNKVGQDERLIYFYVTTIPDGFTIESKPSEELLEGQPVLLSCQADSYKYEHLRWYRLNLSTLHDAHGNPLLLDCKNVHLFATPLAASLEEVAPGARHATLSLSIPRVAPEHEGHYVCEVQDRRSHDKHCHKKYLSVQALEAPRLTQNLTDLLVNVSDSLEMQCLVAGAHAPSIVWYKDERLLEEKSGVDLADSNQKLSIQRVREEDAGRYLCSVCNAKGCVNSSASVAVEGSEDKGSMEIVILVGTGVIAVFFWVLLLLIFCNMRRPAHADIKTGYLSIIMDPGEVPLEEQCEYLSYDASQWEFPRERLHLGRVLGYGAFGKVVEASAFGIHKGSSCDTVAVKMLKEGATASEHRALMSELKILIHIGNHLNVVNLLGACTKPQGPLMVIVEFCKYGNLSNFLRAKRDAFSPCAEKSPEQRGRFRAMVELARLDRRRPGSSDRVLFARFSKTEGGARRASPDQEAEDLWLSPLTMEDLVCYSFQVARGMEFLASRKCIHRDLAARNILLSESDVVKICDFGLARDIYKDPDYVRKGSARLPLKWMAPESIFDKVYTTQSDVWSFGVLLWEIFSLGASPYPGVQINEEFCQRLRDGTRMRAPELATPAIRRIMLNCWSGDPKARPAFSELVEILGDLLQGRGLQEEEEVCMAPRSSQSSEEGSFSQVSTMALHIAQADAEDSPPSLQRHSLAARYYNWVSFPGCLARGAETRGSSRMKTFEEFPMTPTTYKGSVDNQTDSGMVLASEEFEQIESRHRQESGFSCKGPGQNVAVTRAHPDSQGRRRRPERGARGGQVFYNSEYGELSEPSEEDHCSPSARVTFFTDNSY
# PC-3 = assay: Cytotoxicity against human PC-3 cells assessed as cell growth inhibition by MTT assay; format: functional, cell-based
# HCT-116 [13] = assay: Cytotoxicity against human HCT-116 cells assessed as cell growth inhibition measured after 72 hrs by MTT assay; format: functional, cell-based; details: HCT-116, 72 h
# ECa-109 cell line = assay: Antiproliferative activity against human EC109 cells assessed as inhibition of cell growth; format: functional, cell-based
# [14] = target: Vascular endothelial growth factor receptor 2 (Homo sapiens, UniProt P35968); assay: Binding affinity to VEGFR2 (unknown origin) at 10 uM using ULight-4E-BP1 peptide as substrate incubated for 1 hr in presence of ATP by fluorescence based analysis relative to control
# Chain of Vascular endothelial growth factor receptor 2 (P35968 whole entry): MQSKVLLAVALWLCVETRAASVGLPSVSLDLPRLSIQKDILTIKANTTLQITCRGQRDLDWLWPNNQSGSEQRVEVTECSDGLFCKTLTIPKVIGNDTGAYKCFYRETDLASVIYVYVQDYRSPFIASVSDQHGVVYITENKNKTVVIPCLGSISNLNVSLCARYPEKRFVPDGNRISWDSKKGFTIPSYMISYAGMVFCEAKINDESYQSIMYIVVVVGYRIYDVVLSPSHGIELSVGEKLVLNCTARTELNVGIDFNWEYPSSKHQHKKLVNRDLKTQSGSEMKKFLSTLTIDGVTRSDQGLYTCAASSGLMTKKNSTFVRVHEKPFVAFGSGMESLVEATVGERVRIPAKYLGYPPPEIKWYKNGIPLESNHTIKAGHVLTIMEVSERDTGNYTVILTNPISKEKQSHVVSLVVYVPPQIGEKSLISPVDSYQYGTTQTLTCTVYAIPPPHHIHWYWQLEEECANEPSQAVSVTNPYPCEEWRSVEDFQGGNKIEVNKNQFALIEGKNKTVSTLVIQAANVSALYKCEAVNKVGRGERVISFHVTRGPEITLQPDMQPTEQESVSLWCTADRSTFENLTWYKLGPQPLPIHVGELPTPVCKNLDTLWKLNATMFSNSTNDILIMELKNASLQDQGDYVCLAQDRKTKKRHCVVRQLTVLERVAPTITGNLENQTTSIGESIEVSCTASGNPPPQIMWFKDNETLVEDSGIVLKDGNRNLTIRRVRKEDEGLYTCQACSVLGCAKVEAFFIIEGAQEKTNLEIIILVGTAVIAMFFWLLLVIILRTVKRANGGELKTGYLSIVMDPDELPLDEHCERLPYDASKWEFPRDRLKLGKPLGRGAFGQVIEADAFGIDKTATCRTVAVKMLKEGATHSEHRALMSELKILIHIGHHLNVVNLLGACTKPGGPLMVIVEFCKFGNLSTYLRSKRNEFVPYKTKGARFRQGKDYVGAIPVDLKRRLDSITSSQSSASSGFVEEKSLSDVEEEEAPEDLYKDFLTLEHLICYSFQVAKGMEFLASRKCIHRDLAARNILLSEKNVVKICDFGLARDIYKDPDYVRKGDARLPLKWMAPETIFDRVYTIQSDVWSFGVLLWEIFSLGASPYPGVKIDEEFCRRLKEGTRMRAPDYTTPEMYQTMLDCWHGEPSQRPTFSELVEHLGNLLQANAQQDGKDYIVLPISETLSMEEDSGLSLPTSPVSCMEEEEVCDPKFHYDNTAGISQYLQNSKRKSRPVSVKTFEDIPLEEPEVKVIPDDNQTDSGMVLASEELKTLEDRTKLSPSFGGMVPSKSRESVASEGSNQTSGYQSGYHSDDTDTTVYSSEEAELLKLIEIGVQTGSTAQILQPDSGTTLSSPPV
# HepG2 [15] = assay: Antiproliferative activity against human HepG2 cells assessed as cell growth inhibition incubated for 48 hrs by MTT assay; format: functional, cell-based; details: HepG2, 48 h
# MCF7 [16] = assay: Antiproliferative activity against human MCF7 cells assessed as cell growth inhibition incubated for 48 hrs by MTT assay; format: functional, cell-based; details: MCF7, 48 h
# Homo sapiens = species: Homo sapiens; assay: Inhibition of WNT (unknown origin) at 10 uM measured after 24 hrs by TOPFlash reporter gene assay
# [17] = target: T1, Hepatocyte growth factor receptor; assay: Inhibition of MET (unknown origin) at 10 uM incubated for 60 mins by spectrophotometric analysis relative to control
structure (smiles),measurement,setting,value
O=C1Nc2ccccc2/C1=N/Nc1nnc(-c2ccccc2)c2ccccc12,IC50,MDA-MB-231,12 µM
Cc1cc(-c2ccc(OCC(=O)NNc3nnc(COc4ccc(-c5ccc(Cl)c(C)c5)nn4)o3)nn2)ccc1Cl,IC50,HepG2 [1],8.67 µM
same,IC50,MCF7 [2],9.41 µM
Cn1cc(-c2ccc(=O)n(CC3CN(c4ncc(OCC5CCNCC5)cn4)CCO3)n2)cn1 (stereo unspecified),IC50,[3],0.019 µM
O=C1Nc2ccc(Br)cc2/C1=N/Nc1nnc(-c2ccccc2)c2ccccc12,IC50,MDA-MB-231,12 µM
O=c1c(CNc2ccccc2)cc(OS(=O)(=O)C(F)(F)F)nn1Cc1ccccc1,IC50,SK-MEL,3.3 µM
same,IC50,KB,2.8 µM
COC1CCN(C(=O)c2cc(Cc3n[nH]c(=O)c4ccccc34)ccc2F)CC1 [AZD2461],IC50,[4],0.0028 µM
O=C(Cn1nc(Cc2ccccc2)c2ccccc2c1=O)NNC(=S)Nc1ccccc1,IC50,HepG2 [5],7.09 µg/mL
CC1=Nc2c(nnc3ccc(C)cc23)C(=O)NN1,IC50,[6],0.22 µM
same,IC50,MCF7 [7],0.049 µM
Cc1cccc(NC(=S)NNC(=O)c2nnc3ccc(C)cc3c2N)c1,IC50,[6],0.55 µM
same,IC50,MCF7 [7],0.18 µM
same,IC50,MCF-12A,48.7 µM
O=c1ccc(-c2cccnc2)nn1CC1CN(c2ncc(-c3cnn(C4CCNCC4)c3)cn2)CCO1 (stereo unspecified),IC50,[3],0.035 µM
same,IC50,Hs746T,1.9 µM
Cc1ccc2oc(Cc3cc(=O)[nH]nc3C)cc2c1,IC50,P815,35 µM
same,IC50,MCF7 [8],14.5 µM
CCOC(=O)/C(C#N)=N/Nc1ccc(Nc2nnc(-c3ccc(C)c(C)c3)cc2-c2c(-c3ccccc3)[nH]c3ccccc23)cc1,IC50,HepG2 [9],3.1 µg/mL
C=CCNC(=S)Nc1cccc(Nc2ccc(Nc3ccc(S(=O)(=O)NC(=N)N)cc3)nn2)c1,IC50,HCT-116 [10],30.3 µM
same,inhibition (INH),[11],40%
same,inhibition,[12],89.6%
COc1ccc2oc(Cc3cc(=O)[nH]nc3C)cc2c1,IC50,P815,35 µM
same,IC50,MCF7 [8],14.5 µM
Cc1n[nH]c(=O)cc1Cc1cc2ccccc2o1,IC50,P815,35 µM
same,IC50,MCF7 [8],14.5 µM
CCc1ccc2oc(Cc3cc(=O)[nH]nc3C)cc2c1,IC50,P815,35 µM
same,IC50,MCF7 [8],14.5 µM
CCCOc1ccc2oc(Cc3cc(=O)[nH]nc3C)cc2c1,IC50,P815,35 µM
same,IC50,MCF7 [8],14.5 µM
NNc1nnc(-c2ccc(Oc3ccccc3)cc2)c2ccccc12,IC50,PC-3,12.2 µg/mL
COc1cccc(NC(=O)Cc2ccc(-c3nn4c(C)nnc4c4ccccc34)cc2)c1,IC50,HCT-116 [13],57.4 µg/mL
O=C1Nc2ccc(Cl)cc2/C1=N/Nc1nnc(-c2ccccc2)c2ccccc12,IC50,MDA-MB-231,12 µM
O=C1Nc2ccc(F)cc2/C1=N/Nc1nnc(-c2ccccc2)c2ccccc12,IC50,MDA-MB-231,12 µM
Cc1n[nH]c(=O)cc1Cc1cc2cc(C(C)C)ccc2o1,IC50,P815,35 µM
same,IC50,MCF7 [8],14.5 µM
O=c1[nH]cc(F)c(=O)[nH]1 [FLUOROURACIL],IC50,MDA-MB-231,29.4 µM
same,IC50,ECa-109 cell line,14.4 µM
O=C1Nc2ccccc2/C1=N/Nc1nnc(-c2ccc(Cl)cc2)c2ccccc12,IC50,MDA-MB-231,12 µM
O=C(Nc1ccc(Cl)c(Cl)c1)Nc1nnc2ccc(Cl)nn12,Activity,[14],3%
Cc1ccc(NC(=O)c2ccc(CN3CCN(C)CC3)cc2)cc1Nc1nccc(-c2cccnc2)n1 [IMATINIB],inhibition (INH),[11],30%
same,inhibition,[12],89.6%
COc1ccc(-c2cc(Cc3ccccc3O)c(=O)[nH]n2)cc1,IC50,HepG2 [15],26.4 µM
same,IC50,MCF7 [16],> 37 µM
CC(=O)c1ccc(-c2ccc(=O)n(Cc3nc(-c4ncccn4)no3)n2)s1,inhibition,Homo sapiens,19%
same,inhibition,[17],17%
